Patent US6632616B2, “Compounds that selectively bind to expanded polyglutamine repeat domains and methods of use thereof” (Duke University, priority 2000, dated 2003)
Entries after “also recorded” stand apart in the source; their conditions may differ. Like-named read-outs stand apart in the source and are kept apart here. No end group written: not given here.

Experiments:
Qn-YFP = assay: Polyglutamine-YFP (Qn-YFP) aggregate formation in co-transfected COS-7 cells, all lengths; format: cell-based; details: co-expression, 48 hours after transfection, FIG. 4
Experimental: (§1) COS-7 cells examined 48 hours after transfection using a Zeiss fluorescence microscope with the CFP/YFP filter set from Omega Optical Inc. The percentage of cells with aggregates was calculated by counting the number of transfected cells containing aggregate and dividing by the total number of transfected cells multiplied times 100. In each experiment at least 200 transfected cells were counted. Experiments were repeated at least four times. Error bars represent standard errors. *=p<0.05;**=p<0.01 (Student's t-test)
(§2) The CAG repeat of the Qn-GFP vector (Onodera, O. et al. (1996) FEBS Letters 399, 135-139) were inserted into the XhoI and EcoRI sites of the pEYFP-N1 vector (Clontech, Palo Alto, Calif.) to construct the Qn-YFP vectors. The polyglutamine-binding peptide and control constructs were prepared by ligating synthetic oligonucleotides into the XhoI and BamHI sites of the pECFP-N1 vector (Clontech) to obtain glutamine binding peptide 1-CFP (QBP1-CFP), scrambled QBP1-CFP (SCR-CFP), and a computer-generated random peptide-CFP (RAN)-CFP. The insert of QBP1-CFP was duplicated by PCR to obtain a tandem repeat of QBP1-CFP ((QBP1)2-CFP). The sequence of all constructs was confirmed by DNA sequencing. […]
(§3) COS-7 cells were grown and maintained in Dulbecco's modified Eagles' medium (DMEM) supplemented with 10% fetal calf serum (FCS). […] Cells were examined 48 hours after transfection using a Zeiss fluorescence microscope equipped with YFP/CFP filter sets (Omega Optical Inc., Brattleboro, Vt.). The percentage of cells with aggregates was calculated by dividing the number of cells with aggregates by the total number of fluorescent cells, multiplied by 100. […] Cells were incubated with 5 μM ethidium homodimer for 30 minutes (37° C.) and then examined under a fluorescence microscope equipped with a rhodamine filter set. Cells with nuclear fluorescence were counted as dead. In each experiment at least 200 transfected cells were counted. […]

thio-Q62 = assay: Thioredoxin-polyglutamine turbidity (aggregation) assay, thio-Q62; format: biochemical; details: for inhibition of thio-Q62 aggregation (in words): turbidity at 405 nm, FIG. 2
Experimental: (§4) Turbidity assays were performed in 200 μl reactions consisting of thioredoxin-polyglutamine in PBS in 96-well, low protein binding plates. Plates were incubated at 4° C. and turbidity measured at 405 nm on a Thermo Max plate reader (Molecular Devices).
(§5) Peptides were synthesized at the Howard Hughes Medical Institute peptide sequencing facility at Duke University with an acetylated amino terminus and protection of tryptophan with BOC during synthesis. Identical results were obtained with peptides obtained from Bio-Synthesis Inc. (Lewisville, Tex.). Stock solutions of peptides were prepared fresh daily by dissolving in dimethyl sulfoxide at 2.5 mM and incubated with thioredoxin-polyglutamine protein at 0.25-25 μM.
(§6) To monitor thioredoxin-polyglutamine protein aggregation a turbidometric assay was developed, similar to the assays commonly used to study microtubule assembly and β-amyloid aggregation (Jarrett, J. T. et al. (1993) Biochem 32, 4693-4697; Sloboda, R. D. et al. (1976) Biochem 15, 4497-4505). Solutions of thio-Q62 and 81 protein increased turbidity in a polyglutamine length-, time- and concentration-dependent manner (FIG. 1B and C; Time dependence of aggregation of thioredoxin-polyglutamine with 81 glutamines not shown). […] The pelleted and retained material was confirmed as thioredoxin-polyglutamine fusion protein containing 62 or 81 glutamines on western blots probed with anti-thioredoxin or anti-polyglutamine antibody (not shown). In contrast, thioredoxin-polyglutamine protein containing 19 or 35 glutamines (thio-Q19 or 35) was not pelleted by centrifugation and was not trapped by a 0.22 μm filter.

thio-Q19 or 35 = assay: Thioredoxin-polyglutamine turbidity assay, nonpathologic thio-Q19 or 35; format: biochemical
Experimental: as §4, §5, §6

Q81-YFP [1] = assay: Co-localization with Q81-YFP aggregates in co-transfected COS-7 cells; format: cell-based; details: co-expression, 48 hours after transfection
Experimental: The CAG repeat of the Qn-GFP vector (Onodera, O. et al. (1996) FEBS Letters 399, 135-139) were inserted into the XhoI and EcoRI sites of the pEYFP-N1 vector (Clontech, Palo Alto, Calif.) to construct the Qn-YFP vectors. The polyglutamine-binding peptide and control constructs were prepared by ligating synthetic oligonucleotides into the XhoI and BamHI sites of the pECFP-N1 vector (Clontech) to obtain glutamine binding peptide 1-CFP (QBP1-CFP), scrambled QBP1-CFP (SCR-CFP), and a computer-generated random peptide-CFP (RAN)-CFP. The insert of QBP1-CFP was duplicated by PCR to obtain a tandem repeat of QBP1-CFP ((QBP1)2-CFP). The sequence of all constructs was confirmed by DNA sequencing. The first methionine of YFP or CFP was changed to isoleucine by PCR site-directed mutagenesis to eliminate translation of the fluorescent protein without the polyglutamine domain. The sizes of the fluorescent fusion proteins were confirmed by western blotting.
COS-7 cells were grown and maintained in Dulbecco's modified Eagles' medium (DMEM) supplemented with 10% fetal calf serum (FCS). Cells were transfected with Effectene according to manufacturer's instructions (Qiagen GmbH, Hilden, Germany). Cells were examined 48 hours after transfection using a Zeiss fluorescence microscope equipped with YFP/CFP filter sets (Omega Optical Inc., Brattleboro, Vt.). The percentage of cells with aggregates was calculated by dividing the number of cells with aggregates by the total number of fluorescent cells, multiplied by 100. Cell viability was examined 48 hours after transfection using ehtidium homodimer (Molecular Probes, Eugene, Oreg.). Cells were incubated with 5 μM ethidium homodimer for 30 minutes (37° C.) and then examined under a fluorescence microscope equipped with a rhodamine filter set. Cells with nuclear fluorescence were counted as dead. In each experiment at least 200 transfected cells were counted. Cells expressing random peptide-CFP (RAN-CFP) and polyglutamine-YFP (Qn-YFP) were used as a control to calculate the relative difference in aggregate formation and cell death. […]

Q45-YFP = Q45-YFP aggregate formation in co-transfected COS-7 cells; format: cell-based; details: COS-7, 48 hours
Experimental: as §1, with “t-test) […]” for “t-test)”
as §3

Q19-YFP = assay: Intracellular distribution of Q19-YFP in co-transfected COS-7 cells; format: cell-based
Experimental: as §2
as §3, with “dead.” for “dead. In each experiment at least 200 transfected cells were counted.”

Q81-YFP [2] = assay: Q81-YFP aggregate formation in co-transfected COS-7 cells; format: cell-based; details: COS-7, 48 hours
Experimental: as §1, with “t-test) […]” for “t-test)”
as §3

Q57-YFP = Q57-YFP aggregate formation in co-transfected COS-7 cells; format: cell-based; details: COS-7, 48 hours
Experimental: as §1, with “t-test) […]” for “t-test)”
as §3

[3] = system: Q57-YFP induced cell death; assay: Q57-YFP induced cell death in co-transfected COS-7 cells (ethidium homodimer); format: cell-based; details: peptides fused to CFP, co-expressed; for inhibition of Q57-YFP induced cell death: COS-7, 48 hours, ethidium homodimer
Experimental: FIG. 5. […] Open bar=cells co-transfected with Q57-YFP and RAN-CFP. Hatched bar=cells co-transfected with Q57-YFP and SCR-CFP. Filled bar=cells co-transfected with Q57-YFP and QBP1-CFP. Dotted bar=cells co-transfected with Q57-YFP and (QBPI)2-CFP. COS-7 cells examined 48 hours after transfection using a Zeiss fluorescence microscope with rhodamine filter set. The percentage of dead cells was calculated by counting the number of transfected cells stained with ethidium homodimer and dividing by the total number of transfected cells multiplied times 100. In each experiment at least 200 transfected cells were counted. Experiments were repeated at least three times. Error bars represent standard errors. *=p<0.05; **=p<0.01 (Student's t-test).
COS-7 cells were grown and maintained in Dulbecco's modified Eagles' medium (DMEM) supplemented with 10% fetal calf serum (FCS). Cells were transfected with Effectene according to manufacturer's instructions (Qiagen GmbH, Hilden, Germany). Cells were examined 48 hours after transfection using a Zeiss fluorescence microscope equipped with YFP/CFP filter sets (Omega Optical Inc., Brattleboro, Vt.). The percentage of cells with aggregates was calculated by dividing the number of cells with aggregates by the total number of fluorescent cells, multiplied by 100. Cell viability was examined 48 hours after transfection using ehtidium homodimer (Molecular Probes, Eugene, Oreg.). Cells were incubated with 5 μM ethidium homodimer for 30 minutes (37° C.) and then examined under a fluorescence microscope equipped with a rhodamine filter set. Cells with nuclear fluorescence were counted as dead. In each experiment at least 200 transfected cells were counted. Cells expressing random peptide-CFP (RAN-CFP) and polyglutamine-YFP (Qn-YFP) were used as a control to calculate the relative difference in aggregate formation and cell death. Experiments were repeated at least four times.
The relationship between polyglutamine protein aggregation and cell death is controversial. To determine whether QBP1 or tandem-QBP1 inhibit polyglutamine-induced cell death, cell membrane permeability to ethidium homodimer was assayed. The membranes of living cells are impermeable to ethidium homodimer and permeability to ethidium homodimer is a well-established measure of cell death. Ethidium homodimer undergoes a 30-fold increase in fluorescence upon binding to nucleic acid allowing easy detection with a fluorescence microscope using a rhodamine filter. QBP1 and tandem QBP1 ((QBP1)2) fused to CFP inhibit Q57-YFP induced cell death (FIG. 5). […] Similar results have also been observed with Q45- and Q81-YFP (not shown).

[4] = compared to cells co-expressing RAN-CFP
[5] = peptides at 1 and 10 microMolar

thio-Q62, sequence (as listed by the source): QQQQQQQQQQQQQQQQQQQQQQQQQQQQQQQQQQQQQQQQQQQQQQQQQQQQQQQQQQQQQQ
Q81-YFP, sequence (as listed by the source): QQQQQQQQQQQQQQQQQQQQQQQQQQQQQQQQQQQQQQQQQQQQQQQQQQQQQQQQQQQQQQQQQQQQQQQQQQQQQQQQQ
Q57-YFP, sequence (as listed by the source): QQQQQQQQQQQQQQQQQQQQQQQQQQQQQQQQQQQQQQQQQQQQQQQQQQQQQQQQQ
Q45-YFP, sequence (as listed by the source): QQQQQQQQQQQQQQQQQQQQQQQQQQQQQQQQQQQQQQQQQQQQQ

“(QBP1)2-CFP: tandem repeat of QBP1 fused to cyan fluorescent protein (SNWKWWPGIFDSNWKWWPGIFD; also: fused to cyan fluorescent protein)” was tested, and the “effect on percentage of cells with polyglutamine aggregates” value (“effect on percentage of cells” below) (Qn-YFP) was “more effective”.

For “LSLMEFGCRGA [RAN, computer-generated random 11 amino acid peptide, reference compound]”, the “inhibition of thio-Q62 aggregation (in words)” value (“inhibition … (in words)” for short) (thio-Q62) was “did not inhibit aggregation” and the “effect on turbidity of nonpathologic thio-Q19 or 35” value (thio-Q19 or 35) was “no effect”.

In the case of “QBP1-CFP: QBP1 fused to cyan fluorescent protein, expressed in COS-7 cells (SNWKWWPGIFD; also: fused to cyan fluorescent protein)”, the “effect on percentage of cells” value (Qn-YFP) is reported as “reduced the percentage of cells with polyglutamine aggregates”, the “co-localization with Q81-YFP aggregates” value (Q81-YFP [1]) is reported as “co-localization” and the “reduction of Q45-YFP aggregation” value (Q45-YFP; [4]) is reported as 39%. The “effect of co-expression on Q19-YFP distribution” value (Q19-YFP) was “unaffected”.

In the case of “RAN-CFP: computer-generated random peptide fused to cyan fluorescent protein (LSLMEFGCRGA; also: fused to cyan fluorescent protein)”, the “co-localization with Q81-YFP aggregates” value (Q81-YFP [1]) is reported as “did not co-localize”.

“SCR-CFP: scrambled QBP1 fused to cyan fluorescent protein (WPIWSKGNDWF; also: fused to cyan fluorescent protein) [reference compound]” was tested, and the “effect on Q81-YFP aggregation (in words)” value (Q81-YFP [2]) was “did not alter aggregation”, the “effect on Q57-YFP aggregation (in words)” value (Q57-YFP) was “did not alter aggregation” and the “co-localization with Q81-YFP aggregates” value (Q81-YFP [1]) was “did not co-localize”. The “effect on Q45-YFP aggregation (in words)” value (Q45-YFP) was “did not alter aggregation”.

With SNWKWWPGIFD [QBP1] the “effect on percentage of cells” value (Qn-YFP) was “decreases the number of cells containing polyglutamine aggregates”, the “reversal of thio-Q62 aggregation” value (thio-Q62; peptide added after aggregation) was “did not reverse aggregation” and the “inhibition … (in words)” value (thio-Q62) was “potently inhibited”. For the same substance, the “inhibition … (in words)” value (thio-Q62; listed as QBP 1) was “inhibits thio-Q62 aggregation in a concentration-dependent pattern”, the “effect on Q81-YFP aggregation (in words)” value (Q81-YFP [2]) was “did not reach statistical significance” and the “reduction of Q57-YFP aggregation” value (Q57-YFP; [4]) was 26%. The “effect on turbidity of nonpathologic thio-Q19 or 35” value (thio-Q19 or 35) was “no effect” and the “inhibition of Q57-YFP induced cell death” value [3] was “inhibit; also recorded: inhibits polyglutamine-mediated cell death”.

For “SNWKWWPGIFDSNWKWWPGIFD [(QBP1)2, tandem repeat of QBP1]”, the “inhibition of cell death compared with monomer QBP1” value [3] was “more effective” and the “inhibition of Q57-YFP induced cell death” value [3] was “inhibit”.

With WDWWPGIFD the “Ability to Inhibit Aggregation” value (thio-Q62; 5 μm peptide and 15 μM thio-polyglutamine, 62 glutamines, 10 days) was “++ (++ = 50% inhibition)”.

With WKWW the “inhibition of polyglutamine-thioredoxin aggregation (FIG. 6 and 7)” value (“inhibition … (FIG. 6 and 7)” below) (thio-Q62; [5]) was “does not exhibit substantial inhibition of aggregation”.

For “WKWWFD [QBP1-M6FD, QBP1-M7FD with the proline removed]”, the “inhibition … (FIG. 6 and 7)” value (thio-Q62; [5]) was “significant loss of activity”.

For WKWWPFD, the “inhibition … (FIG. 6 and 7)” value (thio-Q62; [5]) was “some activity at high concentration”.

In the case of WKWWPGIF, the “inhibition … (FIG. 6 and 7)” value (thio-Q62) is reported as “retains full inhibitory activity”.
